Like-named read-outs stand apart in the source and are kept apart here. Where a SMILES comes first, the peptide text is derived from it. [ ]: non-standard residue; d: D form. The star is where a group is joined. Tle = CC(C)(C)[C@H](N)C(=O)O; Bz = O=C(c1ccccc1)*
Columns and labels:
[1] = biological target: T1, Caspase-1 (Homo sapiens, UniProt P29466); assay: Caspase-1 enzyme inhibition (Ki); type: biochemical
T1 sequence (P29466 120-297 limits assumed): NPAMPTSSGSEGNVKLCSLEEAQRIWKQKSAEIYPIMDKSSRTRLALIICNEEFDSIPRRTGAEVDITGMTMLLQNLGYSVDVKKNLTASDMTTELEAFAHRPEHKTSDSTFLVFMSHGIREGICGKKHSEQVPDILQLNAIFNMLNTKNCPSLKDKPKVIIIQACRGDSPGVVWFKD
T1 sequence (P29466 317-404 limits assumed): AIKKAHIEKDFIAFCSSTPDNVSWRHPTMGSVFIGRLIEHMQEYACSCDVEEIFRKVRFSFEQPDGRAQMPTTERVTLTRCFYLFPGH
Protocol: Ki values for test compounds with the various caspases were obtained by the method of Margolin et al. (J. Biol. Chem., 272 pp. 7223-7228 (1997)). Assays were performed in 10 mM Tris (Sigma Corp, St Louis Mo.) pH 7.5, 1 mM Dithiothreitol (DTT, Research Organic INC, Cleveland, Ohio) and 0.1% CHAPS (Pierce, Rockford Ill.) at 37° C. For caspase-3, a solution of 8% glycerol was added to the assay buffer to improve enzyme stability. A 65 μL aliquot of the assay buffer and 5 μL aliquot of the appropriate dilutions of inhibitor in DMSO where pipetted into a 96 well plate, treated with 10 μL of caspase, then diluted in assay buffer (0.5-40 nM active protein by active site titration). A control containing DMSO but no compound was included for each determination. The plates were then incubated for 15 minutes at 37° C., before addition of the appropriate substrate (20 μL, final concentration 1-4×KM, final assay volume 100 μL) to initiate the reaction. Reaction rates were measured at 37° C. either by following the time dependant increase in absorbance at 405 nm (for the pNA substrates) or in fluorescence (Ex 390, Em 460) (for the AMC substrates). The rates obtained were plotted against inhibitor concentration and the data fit to the Morrison tight-binding equation for competitive inhibitors (Morrison, J. F., Biochem. Biophys. Acta, 185 pp. 269-286 (1969)). The substrates used for the individual assays were as follows:
Caspase-1 Suc-YVAD-pNA (Bachem, King of Prussia, Pa.) (final concentration in the assay 80 μM),

[2] = test system: Human Peripheral Blood Mononuclear Cells (PBMC), mature IL-1β; assay: PBMC cell assay: IL-1β assay with human peripheral blood mononuclear cells; type: cell-based; details: LPS-stimulated human PBMC, mature IL-1β in supernatant by ELISA
Excerpt: IL-1β Assay with a Mixed Population of Human Peripheral Blood Mononuclear Cells (PBMC) or Enriched Adherent Mononuclear Cells
Processing of pre-IL-1β by ICE can be measured in cell culture using a variety of cell sources. Human PBMC obtained from healthy donors provides a mixed population of lymphocyte subtypes and mononuclear cells that produce a spectrum of interleukins and cytokines in response to many classes of physiological stimulators. Adherent mononuclear cells from PBMC provides an enriched source of normal monocytes for selective studies of cytokine production by activated cells.
An initial dilution series of test compound in DMSO or ethanol is prepared, with a subsequent dilution into RPMI-10% FBS media (containing 2 mM L-glutamine, 10 mM HEPES, 50 U and 50 ug/ml pen/strep) respectively to yield drugs at 4× the final test concentration containing 0.4% DMSO or 0.4% ethanol. The final concentration of DMSO is 0.1% for all drug dilutions. A concentration titration which brackets the apparent Ki for a test compound determined in an ICE inhibition assay is generally used for the primary compound screen.
Generally 5-6 compound dilutions are tested and the cellular component of the assay is performed in duplicate, with duplicate ELISA determinations on each cell culture supernatant.
Buffy coat cells isolated from one pint human blood (yielding 40-45 ml final volume plasma plus cells) are diluted with media to 80 ml and LeukoPREP separation tubes (Becton Dickinson) are each overlaid with 10 ml of cell suspension. After 15 min centrifugation at 1500-1800×g, the plasma/media layer is aspirated and then the mononuclear cell layer is collected with a Pasteur pipette and transferred to a 15 ml conical centrifuge tube (Corning). Media is added to bring the volume to 15 ml, gently mix the cells by inversion and centrifuge at 300×g for 15 min. The PBMC pellet is resuspended in a small volume of media, the cells are counted and adjusted to 6×10^6 cells/ml.
For the cellular assay, 1.0 ml of the cell suspension is added to each well of a 24-well flat bottom tissue culture plate (Corning), 0.5 ml test compound dilution and 0.5 ml LPS solution (Sigma #L-3012; 20 ng/ml solution prepared in complete RPMI media; final LPS concentration 5 ng/ml). The 0.5 ml additions of test compound and LPS are usually sufficient to mix the contents of the wells. Three control mixtures are run per experiment, with either LPS alone, solvent vehicle control, and/or additional media to adjust the final culture volume to 2.0 ml. The cell cultures are incubated for 16-18 hr at 37° C. in the presence of 5% CO2.
At the end of the incubation period, cells are harvested and transferred to 15 ml conical centrifuge tubes. After centrifugation for 10 min at 200×g, supernatants are harvested and transferred to 1.5 ml Eppendorf tubes. It may be noted that the cell pellet may be utilized for a biochemical evaluation of pre-IL-1β and/or mature IL-1β content in cytosol extracts by Western blotting or ELISA with pre-IL-1β specific antisera.
PBMC are isolated and prepared as described above. Media (1.0 ml) is first added to wells followed by 0.5 ml of the PBMC suspension. After a one hour incubation, plates are gently shaken and nonadherent cells aspirated from each well. Wells are then gently washed three times with 1.0 ml of media and final resuspended in 1.0 ml media. The enrichment for adherent cells generally yields 2.5-3.0×10^5 cells per well. The addition of test compounds, LPS, cell incubation conditions and processing of supernatants proceeds as described above.
Quantikine kits (R&D Systems) may be used for the measurement of mature IL-1β. Assays are performed according to the manufacturer's directions. Mature IL-1β levels of about 1-3 ng/ml in both PBMC and adherent mononuclear cell positive controls are observed. […]

[3] = substrate Suc-YVAD-pNA 80 μM, 37° C., pH 7.5

| Structure (SMILES) | Ki [1, 3] | IC50 [2] | Ki [1] |
| --- | --- | --- | --- |
| CC(C)[C@H](NC(=O)c1ccccc1-c1ccc(C(F)(F)F)cc1)C(=O)N1CCC[C@H]1C(=O)N[C@H](C=O)CC(=O)O [Example 5ba] | < 0.01 µM | 1 to 2 µM | – |
| COc1cccc(Oc2ccc(OC)cc2C(=O)N[C@H](C(=O)N2CCC[C@H]2C(=O)N[C@H](C=O)CC(=O)O)C(C)C)c1 [Example 5aw] | < 0.01 µM | 1 to 2 µM | – |
| C[C@H](NC(=O)[C@@H](NC(=O)c1ccccc1)C(C)(C)C)C(=O)N[C@H](C=O)CC(=O)O [Example 29m] (Bz-[Tle]-Ala-Asp-aldehyde) | < 0.01 µM | 0.5 to 1 µM | – |
| CCCc1ccc(-c2ccc(C(=O)N[C@H](C(=O)N3CCC[C@H]3C(=O)N[C@H](C=O)CC(=O)O)C(C)C)cc2)cc1 [Example 5bd] | < 0.01 µM | 1 to 2 µM | – |
| CCCc1c(C(=O)N[C@H](C(=O)N2CCC[C@H]2C(=O)N[C@H](C=O)CC(=O)O)C(C)C)cnn1-c1ccc(Cl)cc1 [Example 5at] | 0.01 to 1 µM | > 2 µM | – |
| CC(C)[C@H](NC(=O)c1ccc2ncsc2c1)C(=O)N1CCC[C@H]1C(=O)N[C@H](C=O)CC(=O)O [Example 5as] | < 0.01 µM | > 2 µM | – |
| CC(=O)N1CCN(C(=O)[C@@H](NC(=O)c2nccc3ccccc23)C(C)C)[C@H](C(=O)N[C@H](C=O)CC(=O)O)C1 [Example 17e] | 0.01 to 1 µM | 0.5 to 1 µM | – |
| CC(C)[C@H](NC(=O)c1ccccc1)C(=O)N1CC[C@H](C)[C@H]1C(=O)N[C@H](C=O)CC(=O)O [Example 26a] | < 0.01 µM | 1 to 2 µM | – |
| CC(C)[C@H](NC(=O)c1csc(C2COc3ccccc3O2)n1)C(=O)N1CCC[C@H]1C(=O)N[C@H](C=O)CC(=O)O (stereo partly shown) [Example 5aq] | 0.01 to 1 µM | > 2 µM | – |
| CCCN(CCC)S(=O)(=O)c1ccc(C(=O)N[C@H](C(=O)N2CCC[C@H]2C(=O)N[C@H](C=O)CC(=O)O)C(C)C)cc1 [Example 5ao] | 0.01 to 1 µM | > 2 µM | – |
| CC(=O)N1CCN(C(=O)[C@@H](NC(=O)c2ccc(N)c(Cl)c2)C(C)C)[C@H](C(=O)N[C@H](C=O)CC(=O)O)C1 [Example 17d] | 0.01 to 1 µM | > 2 µM | – |
| CC(C)[C@H](NC(=O)c1ccc(CSc2ccccn2)o1)C(=O)N1CCC[C@H]1C(=O)N[C@H](C=O)CC(=O)O [Example 5av] | 0.01 to 1 µM | > 2 µM | – |
| CC(C)[C@H](NC(=O)c1nccc2ccccc12)C(=O)N1CCN(C)C[C@H]1C(=O)N[C@H](C=O)CC(=O)O [Example 17b] | 0.01 to 1 µM | 1 to 2 µM | – |
| Cc1cc(C(=O)N[C@H](C(=O)N2CC[C@H](C)[C@H]2C(=O)N[C@H](C=O)CC(=O)O)C(C)C)cc(C)c1O [Example 26b] | < 0.01 µM | 0.5 to 1 µM | – |
| COc1c(Cl)cc(C(=O)N[C@H](C(=O)N2CCC[C@H]2C(=O)N[C@H](C=O)CC(=O)O)C(C)C)cc1Cl [Example 5al] | < 0.01 µM | > 2 µM | – |
| Cc1ccc2ccccc2c1C(=O)N[C@H](C(=O)N1CCC[C@H]1C(=O)N[C@H](C=O)CC(=O)O)C(C)C [Example 5g] | 0.01 to 1 µM | 1 to 2 µM | – |
| CS(=O)(=O)CC[C@H](NC(=O)c1ccc(N)c(Cl)c1)C(=O)N1CCC[C@H]1C(=O)N[C@H](C=O)CC(=O)O [Example 20j] | 0.01 to 1 µM | > 2 µM | – |
| CC(C)[C@H](N)C(=O)N1CC(c2ccccc2)[C@H]1C(=O)N[C@H](C=O)CC(=O)O (stereo partly shown) [Example 24b] | > 1 µM | > 2 µM | – |
| CC(C)[C@H](NC(=O)c1ccc(C(C)(C)C)cc1)C(=O)N1CCC[C@H]1C(=O)N[C@H](C=O)CC(=O)O [Example 5am] | < 0.01 µM | > 2 µM | – |
| Cc1oc(-c2ccccc2)cc1C(=O)N[C@H](C(=O)N1CCC[C@H]1C(=O)N[C@H](C=O)CC(=O)O)C(C)C [Example 5au] | 0.01 to 1 µM | > 2 µM | – |
| C[C@H](NC(=O)c1nccc2ccccc12)C(=O)N1CCNC[C@H]1C(=O)N[C@H](C=O)CC(=O)O [Example 16a] | 0.01 to 1 µM | < 0.5 µM | – |
| CC(C)[C@H](NC(=O)c1ccc(N)c(Cl)c1)C(=O)N1CCNC[C@H]1C(=O)N[C@H](C=O)CC(=O)O [Example 15e] | 0.01 to 1 µM | > 2 µM | – |
| CC(C)[C@H](NC(=O)c1nccc2ccccc12)C(=O)N1CCNC[C@H]1C(=O)N[C@H](C=O)CC(=O)O [Example 15f] | 0.01 to 1 µM | > 2 µM | – |
| COc1c(Cl)cc(C(=O)N[C@H](C(=O)N2CCN(C(C)=O)C[C@H]2C(=O)N[C@H](C=O)CC(=O)O)C(C)C)cc1Cl [Example 17c] | < 0.01 µM | > 2 µM | – |
| Cc1nn(C)c2ncc(C(=O)N[C@H](C(=O)N3CCC[C@H]3C(=O)N[C@H](C=O)CC(=O)O)C(C)C)c(SC(C)C)c12 [Example 5ar] | < 0.01 µM | > 2 µM | – |
| CC(C)Cc1ccc(C(C)C(=O)N[C@H](C(=O)N2CCC[C@H]2C(=O)N[C@H](C=O)CC(=O)O)C(C)C)cc1 (stereo partly shown) [Example 5v] | 0.01 to 1 µM | > 2 µM | 0.01 to 1 µM |
| COc1c(Cl)cc(C(=O)N[C@H](C(=O)N2CCNC[C@H]2C(=O)N[C@H](C=O)CC(=O)O)C(C)C)cc1Cl [Example 15d] | 0.01 to 1 µM | 1 to 2 µM | – |
